Results reported in ChEMBL document CHEMBL1201862, “PubChem BioAssay data set” (2004).
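These data come from cells grown in 96-well plates and exposed to compound for 48 hours at five concentrations. At the GI50, growth is halved.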 Active and inactive are the calls of the source. Rule as the data show it: active = GI50 up to about 1.1 µM and inactive = higher.

Key:
Test in all cases: inhibition of tumour cell growth, NCI panel, 48 h
OVCAR-8 = test system: OVCAR-8
SK-MEL-28 = test system: SK-MEL-28
MDA-N = test system: MDA-N
SNB-19 = test system: SNB-19
NCI-H226 = test system: NCI-H226
K562 = test system: K562
COLO 205 = test system: COLO 205
LOX IMVI = test system: LOX IMVI
A498 = test system: A498
HOP-92 = test system: HOP-92
NCI-H23 = test system: NCI-H23
OVCAR-5 = test system: OVCAR-5
U-251 = test system: U-251
CCRF-CEM = test system: CCRF-CEM
A549 = test system: A549
SF-268 = test system: SF-268
NCI-H460 = test system: NCI-H460
OVCAR-3 = test system: OVCAR-3
SW-620 = test system: SW-620
SF-295 = test system: SF-295
MCF7 = test system: MCF7
SN12C = test system: SN12C
SF-539 = test system: SF-539
SK-MEL-5 = test system: SK-MEL-5
RPMI-8226 = test system: RPMI-8226
BT-549 = test system: BT-549
EKVX = test system: EKVX
RXF 393 = test system: RXF 393
TK-10 = test system: TK-10
UACC-257 = test system: UACC-257
IGROV-1 = test system: IGROV-1
CAKI-1 = test system: CAKI-1
T47D = test system: T47D
UO-31 = test system: UO-31
SK-OV-3 = test system: SK-OV-3
ACHN = test system: ACHN
786-0 = test system: 786-0
PC-3 = test system: PC-3
MOLT-4 = test system: MOLT-4
OVCAR-4 = test system: OVCAR-4
HL-60 = test system: HL-60
HCT-15 = test system: HCT-15
Hs-578T = test system: Hs-578T
SK-MEL-2 = test system: SK-MEL-2
MDA-MB-231 = test system: MDA-MB-231
NCI-H522 = test system: NCI-H522
NCI/ADR-RES = test system: NCI/ADR-RES
M14 = test system: M14
HT-29 = test system: HT-29
UACC-62 = test system: UACC-62
Malme-3M = test system: Malme-3M
DU-145 = test system: DU-145
HCT-116 = test system: HCT-116
KM12 = test system: KM12
MDA-MB-435 = test system: MDA-MB-435
SR = test system: SR
SNB-75 = test system: SNB-75
HOP-62 = test system: HOP-62

Compound: Cc1cc2ccc(OC(=O)c3ccc(NC(=N)N)cc3)cc2oc1=O
- GI50 (OVCAR-8): 33.3 µM (inactive)
- GI50 (SK-MEL-28): 24 µM (inactive)
- GI50 (MDA-N): 29.2 µM (inactive)
- GI50 (SNB-19): 22.2 µM (inactive)
- GI50 (NCI-H226): 26.4 µM (inactive)
- GI50 (K562): 25.6 µM (inactive)
- GI50 (COLO 205): 23.7 µM (inactive)
- GI50 (LOX IMVI): 30.8 µM (inactive)
- GI50 (A498): 21.2 µM (inactive)
- GI50 (HOP-92): 41.6 µM (inactive)
- GI50 (NCI-H23): 21.3 µM (inactive)
- GI50 (OVCAR-5): 34.3 µM (inactive)
- GI50 (U-251): 21.6 µM (inactive)
- GI50 (CCRF-CEM): 30.5 µM (inactive)
- GI50 (A549): 36.2 µM (inactive)
- GI50 (SF-268): 25.2 µM (inactive)
- GI50 (NCI-H460): 31.4 µM (inactive)
- GI50 (OVCAR-3): 16.5 µM (inactive)
- GI50 (SW-620): 24.7 µM (inactive)
- GI50 (SF-295): 46.5 µM (inactive)
- GI50 (MCF7): 22.1 µM (inactive)
- GI50 (SN12C): 23.6 µM (inactive)
- GI50 (SF-539): 24.5 µM (inactive)
- GI50 (SK-MEL-5): 43.8 µM (inactive)
- GI50 (RPMI-8226): 22.2 µM (inactive)
- GI50 (BT-549): 26.3 µM (inactive)
- GI50 (EKVX): 30.5 µM (inactive)
- GI50 (RXF 393): 33.3 µM (inactive)
- GI50 (TK-10): 22.5 µM (inactive)
- GI50 (UACC-257): 35.2 µM (inactive)
- GI50 (IGROV-1): 55 µM (inactive)
- GI50 (CAKI-1): 43.5 µM (inactive)
- GI50 (T47D): 26.8 µM (inactive)
- GI50 (UO-31): 52.4 µM (inactive)
- GI50 (SK-OV-3): 19.1 µM (inactive)
- GI50 (ACHN): > 100 µM (inactive)
- GI50 (786-0): 25.1 µM (inactive)
- GI50 (PC-3): 28.6 µM (inactive)
- GI50 (MOLT-4): 22.9 µM (inactive)
- GI50 (OVCAR-4): 16.6 µM (inactive)
- GI50 (HL-60): 5.93 µM (inactive)
- GI50 (HCT-15): > 100 µM
- GI50 (Hs-578T): 25.9 µM (inactive)
- GI50 (SK-MEL-2): 25.4 µM (inactive)
- GI50 (MDA-MB-231): 22 µM (inactive)
- GI50 (NCI-H522): 18.3 µM (inactive)
- GI50 (NCI/ADR-RES): > 100 µM (inactive)
- GI50 (M14): 28.8 µM (inactive)
- GI50 (HT-29): 26.6 µM (inactive)
- GI50 (UACC-62): 26.9 µM (inactive)
- GI50 (Malme-3M): 22 µM (inactive)
- GI50 (DU-145): 76.9 µM (inactive)
- GI50 (HCT-116): 24.1 µM (inactive)
- GI50 (KM12): 21.7 µM (inactive)
- GI50 (MDA-MB-435): 20 µM (inactive)
- GI50 (SR): 22.5 µM (inactive)
- GI50 (SNB-75): 23.3 µM (inactive)
- GI50 (HOP-62): 18.7 µM (inactive)
